Results reported in patent publication US10662187B2, “Bruton's tyrosine kinase inhibitors” (Zibo Biopolar Changsheng Pharmaceutical Co. Ltd., priority 2016, dated 2020).

Key:
BTK [1] = biological target: T1, BTK (Homo sapiens (Human), UniProt Q06187); assay: Btk occupancy in cellular assays (PCI-33380 labeling, Jeko-1 cells); assay type: cell-based; settings: 1.5 h pre-incubation with compound, PCI-33380 5 μM 1 h
Method: Btk Occupancy in Cellular Assays
For PCI-33380 labeling of human B cells, 10^6 Jeko-1 cells were pre-incubated with compound for 1.5 h before labeling. Then cells were treated with PCI-33380 at 5 μM for 1 h. Washed, lysed in Ripa buffer containing sample reducing agent, and analyzed by SDS/PAGE and fluorescent gel scanning using a Typhoon scanner 9500 (GE Healthcare) (Ex, 532 nm; Em, 555 nm). The gel was then blotted and total Btk levels detected by standard Western blot with Btk antibody (CST).
Target sequence in this assay (Q06187 whole entry): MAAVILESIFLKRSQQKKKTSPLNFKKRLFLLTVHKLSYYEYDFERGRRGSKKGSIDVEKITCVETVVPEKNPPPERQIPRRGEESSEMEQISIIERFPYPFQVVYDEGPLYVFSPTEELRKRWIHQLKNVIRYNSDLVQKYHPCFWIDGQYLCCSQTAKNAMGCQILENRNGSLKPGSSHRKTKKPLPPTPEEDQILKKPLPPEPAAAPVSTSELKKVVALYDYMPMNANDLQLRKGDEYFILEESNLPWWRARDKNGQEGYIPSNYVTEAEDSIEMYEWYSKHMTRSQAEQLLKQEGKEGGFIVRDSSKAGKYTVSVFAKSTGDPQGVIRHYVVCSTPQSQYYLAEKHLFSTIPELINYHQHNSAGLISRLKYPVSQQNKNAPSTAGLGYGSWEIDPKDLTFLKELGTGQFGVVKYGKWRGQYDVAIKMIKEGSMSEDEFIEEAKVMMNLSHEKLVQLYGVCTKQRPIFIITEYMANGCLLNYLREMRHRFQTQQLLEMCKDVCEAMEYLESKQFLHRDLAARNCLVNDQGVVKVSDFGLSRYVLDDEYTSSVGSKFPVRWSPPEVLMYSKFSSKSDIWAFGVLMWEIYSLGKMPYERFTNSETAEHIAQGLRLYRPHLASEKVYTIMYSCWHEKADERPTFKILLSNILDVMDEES

BTK [2] = biological target: T1, BTK; assay: Btk kinase assay (HTRF); assay type: biochemical; settings: [ATP]=80 μM, BTK=3.4 nM; read-out: BTK Inhibition
Procedure, shortened: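 HTRF read-out with enzyme, inhibitor, ATP and 1 μM peptide substrate in 50 mM Hepes pH 7.0, 0.02% NaN3, 0.01% BSA, 0.1 mM orthovanadate. Activity measured across compound concentrations against no-inhibitor controls, with no-enzyme wells as baseline.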
Target sequence in this assay (Q06187 whole entry, species assumed): as the sequence (Q06187 whole entry) above

SMILES	concentration sufficient to fully occupy the active site of Btk (BTK [1])	IC50 (BTK [2])
C=CC(=O)N1CCC[C@@H](n2nc(-c3ccc(Oc4cccc(OC)c4F)cc3)c3c(C)nccc32)C1 [Compound 78, (R)-1-(3-(3-(4-(2-fluoro-3-methoxyphenoxy)phenyl)-4-methyl-1H-pyrazolo[4,3-c]pyridin-1-yl)piperidin-1-yl)prop-2-en-1-one]	50 nM	< 10 nM
C=CC(=O)N1CC[C@@H](n2nc(-c3ccc(Oc4cccc(OC)c4F)cc3)c3cncc(OC)c32)C1 [Compound 79, (R)-1-(3-(3-(4-(2-fluoro-3-methoxyphenoxy)phenyl)-7-methoxy-1H-pyrazolo[4,3-c]pyridin-1-yl)pyrrolidin-1-yl)prop-2-en-1-one]	50 nM	< 10 nM
C=CC(=O)N1CC[C@@H](n2nc(-c3ccc(Oc4cccc(OC)c4Cl)cc3)c3cncc(OC)c32)C1 [Compound 69, (R)-1-(3-(3-(4-(2-chloro-3-methoxyphenoxy)phenyl)-7-methoxy-1H-pyrazolo[4,3-c]pyridin-1-yl)pyrrolidin-1-yl)prop-2-en-1-one]	100 nM	< 10 nM
C=CC(=O)N1CCC[C@@H](n2nc(-c3ccc(Oc4cccc(OC)c4F)cc3)c3cncc(OCCO)c32)C1 [Compound 98, (R)-1-(3-(3-(4-(2-fluoro-3-methoxyphenoxy)phenyl)-7-(2-hydroxyethoxy) 1H-pyrazolo[4,3-c]pyridin-1-yl)piperidin-1-yl)prop-2-en-1-one]	100 nM	< 10 nM
C=CC(=O)N1CC[C@@H](n2nc(-c3ccc(Oc4cccc(OC)c4Cl)cc3)c3cncc(F)c32)C1 [Compound 68, (R)-1-(3-(3-(4-(2-chloro-3-methoxyphenoxy)phenyl)-7-fluoro-1H-pyrazolo [4,3-c]pyridin-1-yl)pyrrolidin-1-yl)prop-2-en-1-one]		< 10 nM
C=CC(=O)N1CCC[C@@H](n2nc(-c3ccc(Oc4cccc(C)c4C)cc3)c3cnccc32)C1 [Compound 24, (R)-1-(3-(3-(4-(2,3-dimethylphenoxy)phenyl)-1H-pyrazolo[4,3-c]pyridin-1-yl)piperidin-1-yl)prop-2-en-1-one]		< 10 nM
CCC(=O)N1CCC[C@@H](n2nc(-c3ccc(Oc4cccc(OC)c4F)cc3)c3cncc(OC)c32)C1 [Compound 89, (R)-1-(3-(3-(4-(2-fluoro-3-methoxyphenoxy)phenyl)-7-methoxy-1H-pyrazolo[4,3-c]pyridin-1-yl)piperidin-1-yl)propan-1-one]		100 to 1000 nM
C=CC(=O)N1CCC[C@@H](n2nc(-c3ccc(OCc4ccccc4F)cc3)c3cnccc32)C1 [Compound 101, (R)-1-(3-(3-(4-((2-fluorobenzyl)oxy)phenyl)-1H-pyrazolo[4,3-c]pyridin-1-yl)piperidin-1-yl)prop-2-en-1-one]		10 to 100 nM
C=CC(=O)N1CCC[C@@H](n2nc(-c3ccc(NC(=O)c4cccc(C(F)(F)F)c4)cc3)c3cnccc32)C1 [Compound 117, (R)-N-(4-(1-(1-acryloylpiperidin-3-yl)-1H-pyrazolo[4,3-c]pyridin-3-yl)phenyl)-3-(trifluoromethyl)benzamide]		10 to 100 nM
C=CC(=O)N1CC[C@@H](n2nc(-c3ccc(Oc4cccc(OC)c4F)cc3)c3cncc(C(F)F)c32)C1 [Compound 67, (R)-1-(3-(7-(difluoromethyl)-3-(4-(2-fluoro-3-melhoxyphenoxy)phenyl)-1H-pyrazolo[4,3-c]pyridin-1-yl)pyrrolidin-1-yl)prop-2-en-1-one]		< 10 nM
C=CC(=O)N1CCC[C@@H](n2nc(-c3ccc(Oc4cccc(OC)c4F)cc3)c3cncc(O)c32)C1 [Compound 82, (R)-1-(3-(3-(4-(2-fluoro-3-methoxyphenoxy)phenyl)-7-hydroxy-1H-pyrazolo[4,3-c]pyridin-1-yl)piperidin-1-yl)prop-2-en-1-one]		< 10 nM
C=CC(=O)N1CCC[C@@H](n2nc(-c3ccc(Oc4cccc(C)c4F)cc3)c3cnccc32)C1 [Compound 48, (R)-1-(3-(3-(4-(2-fluoro-3-methylphenoxy)phenyl)-1H-pyrazolo[4,3-c]pyridin-1-yl)piperidin-1-yl)prop-2-en-1-one]		10 to 100 nM
